Biological target: T1, GTP-loaded KRAS proteins (residue 1-169 of KRAS4B) (Homo sapiens, UniProt P01116, G12V)
T1 construct: recombinant KRAS proteins (residue 1-169 of KRAS4B); His6 (TEV protease-cleavable) (cleaved yes); made in house; host or cells: E. coli
Experiment: RAS GTP hydrolysis rate assay (GTPase-Glo) with cyclophilin A
Assay type: biochemical
Conditions: bound in tri-complex with cyclophilin A; in some embodiments KRAS^G12V is the isoform used
Experimental: The rate of RAS GTP hydrolysis was assayed in the presence of various KRAS mutations. To assess GTP hydrolysis activity, recombinant KRAS proteins (residue 1-169 of KRAS4B) were expressed in E. coli and purified using a TEV protease-cleavable His6-tag and Ni^2+ affinity chromatography. The His6 tag was removed by treatment with TEV protease, and the KRAS protein was isolated by passing through a second Ni^2+ column followed by size exclusion chromatography. The purified KRAS proteins were loaded with GTP by incubation for 2 hours on ice with 2 mM GTP and 10 mM Ethylenediaminetetraacetic Acid, followed by addition of 10 mM MgCl2 and incubation on ice for 1 additional hour. The excess GTP was removed by overnight dialysis against buffer (12.5 mM HEPES, 75 mM NaCl, pH 7.5) at 4° C. The GTP-loaded KRAS protein were flash frozen in liquid nitrogen, then stored at −80° C. until use.
GTP-loaded KRAS proteins (1 μM) were combined with 25 μM of recombinant human cyclophilin A and 10 μM of compound in reaction buffer (12.5 mM HEPES, 75 mM NaCl, 1 mM MgCl2, 1 mM DTT, 1% DMSO, pH 7.5) pre-warmed to 37° C. At fixed time points, aliquots were removed and quenched by heating to 80° C. to denature the proteins, then centrifuged to pellet the protein precipitate. The supernatant was assessed for GTP levels using Promega GTPase-Glo™ according to manufacturer instructions. The levels of GTP as a function of incubation time were fit to a single phase exponential decay to determine the rate constant for hydrolysis activity.

hydrolyzer class: RAS(ON) GTP hydrolysis rate relative to the intrinsic hydrolysis rate | SMILES
9 Weak | CO[C@@H](C)c1ncccc1-c1c2c3cc(ccc3n1CC(F)(F)F)CCN(C)C[C@H](NC(=O)[C@H]1C[C@@H]1C)C(=O)N1CCC[C@H](N1)C(=O)OCC(C)(C)C2 (atropisomer, axis not shown) [compound 9]
10 Moderate | CO[C@@H](C)c1ncccc1-c1c2c3cc(ccc3n1CC(F)(F)F)CCOC[C@H](NC(=O)[C@H]1C[C@@H]1C)C(=O)N1CCC[C@H](N1)C(=O)OCC(C)(C)C2 (atropisomer, axis not shown) [compound 10]
11 Moderate | CO[C@@H](C)c1ncc(N2CCN(C)CC2)cc1-c1c2c3cc(ccc3n1CC(F)(F)F)-c1csc(n1)C[C@H](NC(=O)[C@H]1C[C@@H]1C)C(=O)N1CCC[C@H](N1)C(=O)OCC(C)(C)C2 (atropisomer, axis not shown) [compound 11]
12 Moderate | CCn1c(-c2cc(N3CCN(C)CC3)cnc2[C@H](C)OC)c2c3cc(ccc31)-c1csc(n1)C[C@H](NC(=O)[C@H]1C[C@@H]1C)C(=O)N1CCC[C@H](N1)C(=O)OCC(C)(C)C2 (atropisomer, axis not shown) [compound 12]
13 Moderate | CCn1c(-c2cc(N3CCN(C)CC3)cnc2[C@H](C)OC)c2c3cc(ccc31)-c1csc(n1)C[C@H](NC(=O)[C@H](C(C)C)N(C)C(=O)N(C)C)C(=O)N1CCC[C@H](N1)C(=O)OCC(C)(C)C2 (atropisomer, axis not shown) [compound 13]
14 Moderate | CCn1c(-c2cc(N3CCN(C)CC3)cnc2[C@H](C)OC)c2c3cc(ccc31)-c1csc(n1)C[C@H](NC(=O)[C@H](C(C)C)N(C)C(=O)N1CC(N(C)C)C1)C(=O)N1CCC[C@H](N1)C(=O)OCC(C)(C)C2 (atropisomer, axis not shown) [compound 14]
15 Moderate | CCO[C@@H]1c2nc(cs2)-c2ccc3c(c2)c(c(-c2cc(N4CCN(C)CC4)cnc2[C@H](C)OC)n3CC)CC(C)(C)COC(=O)[C@@H]2CCCN(N2)C(=O)[C@H]1NC(=O)[C@H]1[C@H](C)[C@@H]1C (atropisomer, axis not shown) [compound 15]
16 Moderate | CCO[C@@H]1c2nc(cs2)-c2ccc3c(c2)c(c(-c2cc([C@@H]4CCN5CCOC[C@@H]5C4)cnc2[C@H](C)OC)n3CC)CC(C)(C)COC(=O)[C@@H]2CCCN(N2)C(=O)[C@H]1NC(=O)[C@H]1[C@H](C)[C@@H]1C (atropisomer, axis not shown) [compound 16]
17 Weak | CCO[C@@H]1c2nc(cs2)-c2ccc3c(c2)c(c(-c2cccnc2[C@H](C)OC)n3CC)CC(C)(C)COC(=O)[C@@H]2CCCN(N2)C(=O)[C@H]1NC(=O)[C@@H]1[C@@H](C)[C@H]1C(=O)N(C)C (atropisomer, axis not shown) [compound 17]
18 Weak | CCO[C@@H]1c2nc(cs2)-c2ccc3c(c2)c(c(-c2cc(N4CCN(C)CC4)cnc2[C@H](C)OC)n3CCOC(C)C)CC(C)(C)COC(=O)[C@@H]2CCCN(N2)C(=O)[C@H]1NC(=O)N1CC[C@H]1C (atropisomer, axis not shown) [compound 18]
19 Moderate | CCn1c(-c2cccnc2[C@H](C)OC)c2c3cc(ccc31)-c1csc(n1)C[C@H](NC(=O)[C@H](C(C)C)N(C)C(=O)N1CC(OC)C1)C(=O)N1CCC[C@H](N1)C(=O)OCC(C)(C)C2 (atropisomer, axis not shown) [compound 19]
20 Weak | CCn1c(-c2cc(N3CCN(C)CC3)cnc2[C@H](C)OC)c2c3cc(ccc31)-c1cccc(c1)C[C@H](NC(=O)[C@H]1C[C@@H]1C)C(=O)N1CCC[C@H](N1)C(=O)OCC(C)(C)C2 (atropisomer, axis not shown) [compound 20]

— patent US20260256780A1, “COMPOSITIONS FOR INDUCING RAS GTP HYDROLYSIS AND USES THEREOF” (Revolution Medicines, Inc., priority 2023, published 2026)
